How the values were obtained:
Assay in all cases: Large panel kinase profiling
Type in all cases: biochemical
Details in all cases: 1 μM test article, 1 mM ATP
CDK6/D1 = molecular target: T1, CDK6/D1 (Homo sapiens, UniProt Q00534)
T1 construct: AssayQuant Technologies, Inc. (ran the panel)
Summary of the method: (§1)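 Single-point profiling at 1 μM test article used 1 mM ATP. Phosphorylation was tracked by sensor fluorescence increase over time at 30° C., with readings each minute at excitation 360 nm and emission 485 nm.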

PRKD3 = molecular target: T2, PRKD3 (Homo sapiens, UniProt O94806)
T2 sequence (O94806 1-890): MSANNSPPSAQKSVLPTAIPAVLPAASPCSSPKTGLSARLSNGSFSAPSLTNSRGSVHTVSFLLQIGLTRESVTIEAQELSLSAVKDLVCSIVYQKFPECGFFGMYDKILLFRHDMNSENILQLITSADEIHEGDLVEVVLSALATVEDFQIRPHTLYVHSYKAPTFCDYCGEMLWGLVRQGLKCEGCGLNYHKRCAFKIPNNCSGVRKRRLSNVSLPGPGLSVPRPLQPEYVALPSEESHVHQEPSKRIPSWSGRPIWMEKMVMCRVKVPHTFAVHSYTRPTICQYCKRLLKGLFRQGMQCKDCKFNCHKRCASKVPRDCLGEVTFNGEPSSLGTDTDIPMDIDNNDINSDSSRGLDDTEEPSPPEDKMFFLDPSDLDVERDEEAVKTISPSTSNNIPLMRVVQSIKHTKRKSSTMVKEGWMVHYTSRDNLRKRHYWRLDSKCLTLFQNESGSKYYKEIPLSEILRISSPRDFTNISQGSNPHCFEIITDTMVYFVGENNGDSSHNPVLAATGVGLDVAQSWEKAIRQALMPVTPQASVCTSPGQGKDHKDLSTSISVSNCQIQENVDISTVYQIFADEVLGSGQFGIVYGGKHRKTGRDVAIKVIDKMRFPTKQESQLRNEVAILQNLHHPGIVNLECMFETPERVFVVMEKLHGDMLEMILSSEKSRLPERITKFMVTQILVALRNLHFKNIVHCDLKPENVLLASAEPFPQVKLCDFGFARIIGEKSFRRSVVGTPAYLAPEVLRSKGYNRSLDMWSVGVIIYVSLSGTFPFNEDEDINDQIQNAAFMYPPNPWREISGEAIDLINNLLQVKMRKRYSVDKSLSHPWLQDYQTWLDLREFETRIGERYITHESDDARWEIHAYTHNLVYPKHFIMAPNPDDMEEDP
Summary of the method: as §1

CAMK1G = CAMK1G (Homo sapiens, UniProt Q96NX5)
Sequence of CAMK1G (Q96NX5 whole entry): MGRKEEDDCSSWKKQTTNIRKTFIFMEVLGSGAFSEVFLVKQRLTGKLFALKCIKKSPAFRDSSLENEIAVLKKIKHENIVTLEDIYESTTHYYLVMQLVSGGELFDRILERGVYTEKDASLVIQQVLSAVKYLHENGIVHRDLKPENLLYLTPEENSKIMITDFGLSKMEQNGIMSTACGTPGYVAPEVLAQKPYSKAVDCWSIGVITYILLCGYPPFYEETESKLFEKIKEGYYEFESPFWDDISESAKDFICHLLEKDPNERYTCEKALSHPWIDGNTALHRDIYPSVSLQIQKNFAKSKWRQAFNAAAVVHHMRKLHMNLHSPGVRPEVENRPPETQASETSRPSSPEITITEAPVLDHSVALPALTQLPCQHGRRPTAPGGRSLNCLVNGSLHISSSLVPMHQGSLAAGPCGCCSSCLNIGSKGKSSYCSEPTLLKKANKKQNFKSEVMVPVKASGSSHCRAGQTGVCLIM
Summary of the method: as §1

MAPK1/ERK2 = molecular target: T3, MAPK1/ERK2 (Homo sapiens, UniProt P28482)
T3 construct: AssayQuant Technologies, Inc. (service provider)
T3 sequence (P28482 whole entry): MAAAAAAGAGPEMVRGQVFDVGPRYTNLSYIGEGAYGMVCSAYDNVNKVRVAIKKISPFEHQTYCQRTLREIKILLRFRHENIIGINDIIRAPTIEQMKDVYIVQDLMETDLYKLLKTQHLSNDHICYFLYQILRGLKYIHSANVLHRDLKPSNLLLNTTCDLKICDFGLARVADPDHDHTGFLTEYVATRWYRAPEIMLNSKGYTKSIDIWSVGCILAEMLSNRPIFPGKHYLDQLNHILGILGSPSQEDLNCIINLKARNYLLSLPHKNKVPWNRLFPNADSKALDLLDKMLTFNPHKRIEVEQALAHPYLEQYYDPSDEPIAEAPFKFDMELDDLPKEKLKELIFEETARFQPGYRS
Summary of the method: as §1

EGFR = molecular target: T4, EGFR (Homo sapiens, UniProt P00533)
T4 construct: AssayQuant Technologies, Inc. (service laboratory)
T4 sequence (P00533 25-1210, species assumed): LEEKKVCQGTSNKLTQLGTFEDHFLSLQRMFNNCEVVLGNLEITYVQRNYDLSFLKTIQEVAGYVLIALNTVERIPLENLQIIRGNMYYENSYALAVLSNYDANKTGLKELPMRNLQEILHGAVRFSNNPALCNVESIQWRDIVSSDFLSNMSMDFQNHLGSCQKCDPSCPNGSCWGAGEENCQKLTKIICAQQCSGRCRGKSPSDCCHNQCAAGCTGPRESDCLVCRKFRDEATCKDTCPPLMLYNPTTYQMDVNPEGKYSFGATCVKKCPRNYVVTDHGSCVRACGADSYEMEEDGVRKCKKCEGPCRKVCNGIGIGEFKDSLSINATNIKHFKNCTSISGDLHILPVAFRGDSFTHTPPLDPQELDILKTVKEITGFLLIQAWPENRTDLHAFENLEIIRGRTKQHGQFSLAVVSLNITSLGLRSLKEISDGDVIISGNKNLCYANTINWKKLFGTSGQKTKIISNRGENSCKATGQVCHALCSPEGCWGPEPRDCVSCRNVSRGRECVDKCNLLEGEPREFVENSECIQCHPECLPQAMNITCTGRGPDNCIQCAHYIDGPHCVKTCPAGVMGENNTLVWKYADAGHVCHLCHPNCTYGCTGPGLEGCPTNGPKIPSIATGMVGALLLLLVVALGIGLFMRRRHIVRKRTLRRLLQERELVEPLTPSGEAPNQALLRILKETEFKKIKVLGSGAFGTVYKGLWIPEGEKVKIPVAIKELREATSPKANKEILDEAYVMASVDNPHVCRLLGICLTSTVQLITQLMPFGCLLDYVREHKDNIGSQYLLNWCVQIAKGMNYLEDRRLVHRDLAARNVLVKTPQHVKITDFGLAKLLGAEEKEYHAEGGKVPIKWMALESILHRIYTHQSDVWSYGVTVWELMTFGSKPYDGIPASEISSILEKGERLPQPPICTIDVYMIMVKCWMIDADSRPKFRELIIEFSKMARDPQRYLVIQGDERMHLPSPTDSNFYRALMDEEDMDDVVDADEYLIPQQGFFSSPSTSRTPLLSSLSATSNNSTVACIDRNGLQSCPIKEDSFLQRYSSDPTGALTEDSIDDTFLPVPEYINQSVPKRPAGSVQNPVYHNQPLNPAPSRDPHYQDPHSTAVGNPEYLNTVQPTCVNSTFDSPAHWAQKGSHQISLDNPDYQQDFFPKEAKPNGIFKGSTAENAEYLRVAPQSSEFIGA
Summary of the method: as §1

MAP3K3 = molecular target: T5, MAP3K3 (Homo sapiens, UniProt Q99759)
T5 construct: AssayQuant Technologies, Inc. (service provider)
T5 sequence (Q99759 1-626): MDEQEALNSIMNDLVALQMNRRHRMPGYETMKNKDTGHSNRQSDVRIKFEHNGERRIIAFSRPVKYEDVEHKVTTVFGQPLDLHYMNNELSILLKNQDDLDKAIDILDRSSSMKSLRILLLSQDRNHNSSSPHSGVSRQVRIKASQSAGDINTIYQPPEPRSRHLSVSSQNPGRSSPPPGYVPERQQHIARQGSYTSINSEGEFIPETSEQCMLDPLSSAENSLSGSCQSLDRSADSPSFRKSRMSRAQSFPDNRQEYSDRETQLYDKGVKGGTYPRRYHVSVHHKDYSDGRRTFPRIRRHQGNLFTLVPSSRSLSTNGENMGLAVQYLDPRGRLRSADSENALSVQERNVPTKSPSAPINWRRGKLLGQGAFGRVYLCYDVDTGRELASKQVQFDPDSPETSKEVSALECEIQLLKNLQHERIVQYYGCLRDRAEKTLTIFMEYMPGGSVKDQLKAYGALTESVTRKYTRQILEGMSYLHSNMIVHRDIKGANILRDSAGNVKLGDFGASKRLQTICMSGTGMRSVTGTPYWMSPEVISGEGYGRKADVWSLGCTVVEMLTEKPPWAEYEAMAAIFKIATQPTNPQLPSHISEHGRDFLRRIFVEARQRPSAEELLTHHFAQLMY
Summary of the method: as §1

T1 sequence (Q00534 whole entry, species assumed): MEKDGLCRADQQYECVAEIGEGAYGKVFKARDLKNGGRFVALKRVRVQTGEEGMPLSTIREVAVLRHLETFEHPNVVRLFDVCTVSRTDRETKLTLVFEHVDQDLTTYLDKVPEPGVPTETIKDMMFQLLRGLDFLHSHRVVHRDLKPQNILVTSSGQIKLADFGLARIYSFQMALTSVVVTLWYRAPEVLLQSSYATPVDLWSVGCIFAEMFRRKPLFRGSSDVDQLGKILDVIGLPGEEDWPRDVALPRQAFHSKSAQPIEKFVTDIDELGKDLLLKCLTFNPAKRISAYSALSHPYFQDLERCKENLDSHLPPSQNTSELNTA
T1 sequence (P24385 whole entry partner, species assumed): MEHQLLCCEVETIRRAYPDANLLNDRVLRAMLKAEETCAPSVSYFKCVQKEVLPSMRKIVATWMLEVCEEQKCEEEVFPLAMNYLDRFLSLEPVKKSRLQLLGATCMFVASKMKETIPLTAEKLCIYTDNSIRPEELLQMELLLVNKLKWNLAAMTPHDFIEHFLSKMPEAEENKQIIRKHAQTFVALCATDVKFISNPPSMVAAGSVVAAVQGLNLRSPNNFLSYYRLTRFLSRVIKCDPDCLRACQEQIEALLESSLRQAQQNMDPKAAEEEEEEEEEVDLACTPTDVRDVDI

| Structure (SMILES) | inhibition at 1 µM (CDK6/D1) | inhibition at 1 µM (PRKD3) | inhibition at 1 µM (CAMK1G) | inhibition at 1 µM (MAPK1/ERK2) | inhibition at 1 µM (EGFR) | inhibition at 1 µM (MAP3K3) |
| --- | --- | --- | --- | --- | --- | --- |
| C=CC(=O)N1CCCC(c2c(F)cc(C(N)=O)c3[nH]c4c(c23)CCCCC4)C1 (single isomer, unassigned) [Compound 5-6] | -5.8% | 4.4% | 15.6% | -4.4% | -7.8% | -7% |
| C=CC(=O)N1CCC[C@@H](c2c(F)cc(C(N)=O)c3[nH]c4c(c23)CCC4)C1 [Compound 10-2, (S)-8-(1-acryloylpiperidin-3-yl)-7-fluoro-1,2,3,4-tetrahydrocyclo-penta[b]indole-5-carboxamide] | 12.8% | -65.4% | 9.7% | -8.8% | 1.6% | 19.9% |
| C=CC(=O)N1CCC[C@@H](c2c(F)cc(C(N)=O)c3[nH]c4c(c23)CC2(CC4)CC2)C1 [Compound 6-2, (S)-5-(1-acryloylpiperidin-3-yl)-6-fluoro-1,2,4,9-tetrahydrospiro[carbazole-3,1′-cyclopropane]-8-carboxamide] | -4.3% | -62.4% | 19.6% | -3.8% | -7.7% | -3.6% |
